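Growth conditions: 96-well plates. Treatment: test compound, 48 hours, 5 concentrations. Analysis: linear interpolation between bracketing concentrations; unreached endpoints set to highest concentration. Here, GI50 denotes the concentration required for 50% inhibition of growth.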 Activity calls are given as the source filed them. Cut-off read from the data, not from the text of the source: active = GI50 up to about 1.1 µM and inactive = higher.
How the values were obtained:
Assay in all cases: NCI-60 cell line screen, 48 h
[1] = test system: KM12
[2] = test system: HT-29
[3] = test system: IGROV-1
[4] = test system: DU-145
[5] = test system: SN12C
[6] = test system: OVCAR-5
[7] = test system: RXF 393
[8] = test system: HOP-62
[9] = test system: PC-3
[10] = test system: SK-OV-3
[11] = test system: HCC 2998
[12] = test system: MOLT-4
[13] = test system: SF-268
[14] = test system: MDA-MB-435
[15] = test system: UACC-62
[16] = test system: U-251
[17] = test system: SK-MEL-5
[18] = test system: MDA-N
[19] = test system: Malme-3M
[20] = test system: SR

Measured: GI50

COC(=O)C1C(C(=O)OC)N(Cc2ccccc2)C(=O)N1Cc1ccccc1 (stereo not given)
inactive: [1] > 100 µM | [2] > 100 µM | [3] 85.7 µM | [4] > 100 µM | [5] > 100 µM | [6] > 100 µM | [7] > 100 µM | [8] > 100 µM | [9] > 100 µM | [10] 53.8 µM | [11] > 100 µM | [12] 22.8 µM | [13] > 100 µM | [14] > 100 µM | [15] 64.6 µM | [16] > 100 µM | [17] 58.5 µM | [18] > 100 µM | [19] > 100 µM

CCC(C(=O)c1ccc(OC)c(OC)c1)N(C(=O)C(F)(F)F)C(C)c1ccccc1 (stereo not given)
inactive: [2] > 100 µM | [3] > 100 µM | [4] > 100 µM | [20] > 100 µM | [6] > 100 µM | [8] > 100 µM | [9] > 100 µM | [10] > 100 µM | [11] > 100 µM | [12] > 100 µM | [13] 83.9 µM | [14] > 100 µM | [15] > 100 µM | [16] > 100 µM | [17] > 100 µM | [18] > 100 µM | [19] > 100 µM

NNc1nnc(-c2ccccc2)nc1Cc1ccccc1
inactive: [1] 8.3 µM | [2] 8.3 µM | [3] 10.9 µM | [20] 4.43 µM | [5] 5.79 µM | [6] 6.65 µM | [7] 5.53 µM | [8] 2.69 µM | [10] 14.3 µM | [11] 3.39 µM | [12] 3.19 µM | [13] 3.64 µM | [15] 3.62 µM | [16] 6.87 µM | [17] 12.3 µM | [19] 3.56 µM

NC(CCCCCP(=O)(O)O)C(=O)O (stereo not given) [AP-7]
inactive: [1] > 100 µM | [2] > 100 µM | [3] > 100 µM | [4] > 100 µM | [20] > 100 µM | [5] > 100 µM | [6] > 100 µM | [7] > 100 µM | [9] > 100 µM | [10] > 100 µM | [11] > 100 µM | [12] > 100 µM | [13] > 100 µM | [14] > 100 µM | [15] 80.7 µM | [16] > 100 µM | [17] > 100 µM | [18] > 100 µM
